Where “and” joins values, the source holds several entries; their conditions need not be identical. Identical values can stand only once.
Columns and labels:
PPARγ = conditions: known PPARγ activity of ChEMBL ligands; ref ChEMBL database; cited from earlier work
liver X receptor (LXR)α = target: T1, liver X receptor (LXR)α (Homo sapiens, UniProt Q13133); test: Nuclear receptor selectivity profiling, hybrid reporter gene assay, LXRα; format: cell-based
T1 construct: LXRα (pFA-CMV-hLXRα-LBD[104], 1 μM TO901317); expressed in transfected cells; host or cells: HEK293T
T1 sequence (Q13133 209-447 limits assumed): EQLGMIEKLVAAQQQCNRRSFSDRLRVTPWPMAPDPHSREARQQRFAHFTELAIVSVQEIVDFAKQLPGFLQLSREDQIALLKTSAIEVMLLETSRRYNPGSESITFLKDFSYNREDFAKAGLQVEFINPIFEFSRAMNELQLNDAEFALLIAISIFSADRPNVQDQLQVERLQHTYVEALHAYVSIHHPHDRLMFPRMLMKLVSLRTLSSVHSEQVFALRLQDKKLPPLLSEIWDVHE
Description: (§1) PPAR activation was determined in uniform Gal4-hybrid reporter gene assays for the PPARα, PPARγ and PPARδ isoforms in HEK293T cells (German Collection of Microorganisms and Cell Culture GmbH, DSMZ) which were transiently transfected with pFR-Luc (Stratagene, La Jolla, CA, USA; reporter) and pRL-SV40 (Promega, Madison, WI, USA; internal control) and one pFA-CMV-hPPAR-LBD[97] clone, coding for the hinge region and ligand binding domain of the canonical isoform of human PPARα, PPARγ, PPARδ or respectively. Cells were cultured in Dulbecco’s modified Eagle’s medium (DMEM), high glucose supplemented with 10% fetal calf serum (FCS), sodium pyruvate (1 mM), penicillin (100 U ⋅ ml^-1), and streptomycin (100 μg ⋅ ml^-1) at 37 °C and 5% CO2 and seeded in 96-well plates (3 × 10^4 cells per well). After 24 h, medium was changed to Opti-MEM without supplements and cells were transiently transfected using Lipofectamine LTX reagent (Invitrogen) according to the manufacturer’s protocol. Five hours after transfection, cells were incubated with the test compounds in Opti-MEM supplemented with penicillin (100 U ⋅ ml^-1), streptomycin (100 μg ⋅ ml^-1) and 0.1% DMSO for 16 h before luciferase activity was measured using the Dual-Glo Luciferase Assay System (Promega) according to the manufacturer’s protocol on a Tecan Spark luminometer (Tecan Deutschland GmbH, Germany). Firefly luminescence was divided by Renilla luminescence and multiplied by 1000 resulting in relative light units (RLU) to normalize for transfection efficiency and cell growth. Fold activation was obtained by dividing the mean RLU of a test compound by the mean RLU of the untreated control. All samples were tested in at least three biologically independent experiments in duplicates. For dose-response curve fitting and calculation of EC50 values, the equation “[Agonist] versus response (variable slope—four parameters)” was used in GraphPad Prism (version 7.00, GraphPad Software, La Jolla, CA, USA) with fold activation data. The reference agonizts GW7647 (PPARα)[98],[99], pioglitazone (PPARγ)[100],[101] and L165,041 (PPARδ)[102],[103] were used to validate the assays and to monitor assay performance. Nuclear receptor selectivity profiling was performed with corresponding pFA-CMV-hNR-LBD clones and suitable reference agonizts on RARα (pFA-CMV-hRARα-LBD[104], 1 μM tretinoin), LXRα (pFA-CMV-hLXRα-LBD[104], 1 μM TO901317) and RXRα (pFA-CMV-h RXRα-LBD[105], 1 μM Bexarotene).

[1] = target: T2, retinoic acid receptor (RAR)α (Homo sapiens, UniProt P10276); test: Nuclear receptor selectivity profiling, hybrid reporter gene assay, RARα; format: cell-based
T2 construct: RARα (pFA-CMV-hRARα-LBD[104], 1 μM tretinoin); expressed in transfected cells; host or cells: HEK293T
T2 sequence (P10276 183-417 limits assumed): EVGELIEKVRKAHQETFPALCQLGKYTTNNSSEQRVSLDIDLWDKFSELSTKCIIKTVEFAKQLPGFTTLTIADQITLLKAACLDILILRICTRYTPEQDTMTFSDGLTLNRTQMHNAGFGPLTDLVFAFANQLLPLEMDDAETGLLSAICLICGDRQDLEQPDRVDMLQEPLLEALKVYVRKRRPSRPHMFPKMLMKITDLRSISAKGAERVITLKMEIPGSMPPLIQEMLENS
Description: (§2) Compounds 1–3 were characterized in a hybrid reporter gene assay for their agoniztic effect on human nuclear receptors PPARα/γ/δ, RXRα, FXRα, RARα in HEK293T cells. Compound 1 was tested in an isothermal titration calorimetry (ITC) assay to measure direct binding affinity to the ligand-binding domain of PPARγ. ADME properties were measured in standardized assays at Roche.
as §1

human PPARγ = target: T3, human PPARγ (Homo sapiens, UniProt P37231); test: Gal4-hybrid reporter gene assay, PPARγ activation; format: cell-based
T3 construct: expressed in transfected cells; host or cells: HEK293T
T3 sequence (P37231 238-503 limits assumed): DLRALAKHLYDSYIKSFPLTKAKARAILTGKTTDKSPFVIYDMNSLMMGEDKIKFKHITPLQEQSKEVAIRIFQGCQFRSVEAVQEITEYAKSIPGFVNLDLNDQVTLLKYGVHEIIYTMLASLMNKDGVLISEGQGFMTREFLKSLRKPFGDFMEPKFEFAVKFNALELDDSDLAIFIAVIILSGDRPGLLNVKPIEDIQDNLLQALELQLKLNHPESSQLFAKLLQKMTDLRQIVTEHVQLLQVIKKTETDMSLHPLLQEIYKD
Description: as §2, §1

[2] = target: T4, retinoid X receptor (RXR)α (Homo sapiens, UniProt P19793); test: Nuclear receptor selectivity profiling, hybrid reporter gene assay, RXRα; format: cell-based
T4 construct: RXRα (pFA-CMV-h RXRα-LBD[105], 1 μM Bexarotene); expressed in transfected cells; host or cells: HEK293T
T4 sequence (P19793 227-458 limits assumed): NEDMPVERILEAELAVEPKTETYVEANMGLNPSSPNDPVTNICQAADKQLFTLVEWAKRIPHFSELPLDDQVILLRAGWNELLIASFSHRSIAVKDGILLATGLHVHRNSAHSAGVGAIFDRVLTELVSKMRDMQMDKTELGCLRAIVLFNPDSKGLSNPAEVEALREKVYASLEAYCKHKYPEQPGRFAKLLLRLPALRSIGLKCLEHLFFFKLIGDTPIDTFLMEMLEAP
Description: as §2, §1

human PPARα = target: T5, human PPARα (Homo sapiens, UniProt Q07869); test: Gal4-hybrid reporter gene assay, PPARα activation; format: cell-based; conditions: for Fold PPARα activation: individual replicates, source data Fig. 5
T5 construct: expressed in transfected cells; host or cells: HEK293T
T5 sequence (Q07869 239-466 limits assumed): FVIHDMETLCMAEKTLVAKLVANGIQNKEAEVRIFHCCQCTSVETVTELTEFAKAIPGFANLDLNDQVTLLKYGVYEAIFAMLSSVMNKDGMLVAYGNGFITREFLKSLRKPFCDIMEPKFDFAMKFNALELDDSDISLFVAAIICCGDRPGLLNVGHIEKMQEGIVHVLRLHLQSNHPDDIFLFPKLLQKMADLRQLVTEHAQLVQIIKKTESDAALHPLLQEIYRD
Description: as §2, §1

human PPARδ = target: T6, human PPARδ (Homo sapiens, UniProt Q03181); test: Gal4-hybrid reporter gene assay, PPARδ activation; format: cell-based; conditions: result in words
T6 construct: expressed in transfected cells; host or cells: HEK293T
T6 sequence (Q03181 211-439 limits assumed): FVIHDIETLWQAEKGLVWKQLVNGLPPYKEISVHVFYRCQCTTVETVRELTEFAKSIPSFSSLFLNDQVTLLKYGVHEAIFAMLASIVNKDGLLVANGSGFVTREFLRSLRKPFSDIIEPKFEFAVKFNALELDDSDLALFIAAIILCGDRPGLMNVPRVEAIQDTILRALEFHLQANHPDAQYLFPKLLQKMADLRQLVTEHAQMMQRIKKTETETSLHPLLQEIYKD
Description: as §2
PPAR activation was determined in uniform Gal4-hybrid reporter gene assays for the PPARα, PPARγ and PPARδ isoforms in HEK293T cells (German Collection of Microorganisms and Cell Culture GmbH, DSMZ) which were transiently transfected with pFR-Luc (Stratagene, La Jolla, CA, USA; reporter) and pRL-SV40 (Promega, Madison, WI, USA; internal control) and one pFA-CMV-hPPAR-LBD[97] clone, coding for the hinge region and ligand binding domain of the canonical isoform of human PPARα, PPARγ, PPARδ or respectively. Cells were cultured in Dulbecco’s modified Eagle’s medium (DMEM), high glucose supplemented with 10% fetal calf serum (FCS), sodium pyruvate (1 mM), penicillin (100 U ⋅ ml^-1), and streptomycin (100 μg ⋅ ml^-1) at 37 °C and 5% CO2 and seeded in 96-well plates (3 × 10^4 cells per well). After 24 h, medium was changed to Opti-MEM without supplements and cells were transiently transfected using Lipofectamine LTX reagent (Invitrogen) according to the manufacturer’s protocol. Five hours after transfection, cells were incubated with the test compounds in Opti-MEM supplemented with penicillin (100 U ⋅ ml^-1), streptomycin (100 μg ⋅ ml^-1) and 0.1% DMSO for 16 h before luciferase activity was measured using the Dual-Glo Luciferase Assay System (Promega) according to the manufacturer’s protocol on a Tecan Spark luminometer (Tecan Deutschland GmbH, Germany). Firefly luminescence was divided by Renilla luminescence and multiplied by 1000 resulting in relative light units (RLU) to normalize for transfection efficiency and cell growth. Fold activation was obtained by dividing the mean RLU of a test compound by the mean RLU of the untreated control. […]

Q: Which pEC50 (PPARγ) does the source give for `Cc1sc(-c2ccccc2F)nc1CCOc1ccc2c(c1)CC[C@H]2CC(=O)O` [ChEMBL391987] here?
A: The pEC50 was 6.94.

Q: For `CCCc1cc(C(F)(F)F)ccc1OCCCOc1ccc(OCC(=O)O)c(C)c1` [ChEMBL213355], which pEC50 (PPARγ) is on record?
A: The pEC50 was 6.82.

Q: Which results are given for `COc1ccc(Oc2ccc3c(c2)ncn3CCOc2ccc(CCC(=O)O)cc2)cc1` [Compound 3]?
A: LXRα reporter activation, replicate values (DMSO ctrl = 1,000) (liver X receptor (LXR)α; 3 µM): 2,211 and 1,139 and 1,444; LXRα reporter activation, replicate values (DMSO ctrl = 1,000) (liver X receptor (LXR)α; 10 µM): 2,149 and 1,346 and 1,762; RARα reporter activation, replicate values (DMSO ctrl = 1,000) ([1]; 3 µM): 1,594 and 0,817 and 1,542; RARα reporter activation, replicate values (DMSO ctrl = 1,000) ([1]; 10 µM): 1,322 and 1,046 and 1,521; PPARγ reporter activation, replicate values (Figure 5) (human PPARγ; conc. 0,00000100 M): 3,029 and 3,245 and 3,909 and 5,555 and 6,269 and 5,771 and 5,328; PPARγ reporter activation, replicate values (Figure 5) (human PPARγ; conc. 0,00000200 M): 8,955 and 11,943 and 12,245 and 11,406; PPARγ reporter activation, replicate values (Figure 5) (human PPARγ; conc. 0,00000300 M): 17,358 and 14,143 and 17,954; PPARγ reporter activation, replicate values (Figure 5) (human PPARγ; conc. 0,00001000 M): 19,221 and 19,629 and 17,043 and 19,534 and 21,221 and 20,328 and 19,624; PPARγ reporter activation, replicate values (Figure 5) (human PPARγ; conc. 1,00000000e-007 M): 0,766 and 0,976 and 1,313; PPARγ reporter activation, replicate values (Figure 5) (human PPARγ; conc. 1,00000000e-008 M): 0,785 and 0,961 and 1,208; PPARγ reporter activation, replicate values (Figure 5) (human PPARγ; conc. 3,00000000e-007 M): 1,068 and 1,571 and 1,294 and 2,247 and 2,063 and 1,947 and 1,524; EC50 (human PPARγ; hybrid reporter gene assay, HEK293T cells, read-out: EC50(PPARγ)): 1800 ± 100 nM; RXRα reporter activation, replicate values (DMSO ctrl = 1,000) ([2]; 3 µM): 1,197 and 1,077 and 1,363; RXRα reporter activation, replicate values (DMSO ctrl = 1,000) ([2]; 10 µM): 1,155 and 1,200 and 1,295; Fold PPARα activation (human PPARα; conc. 0,00000100 M): 1,270 and 1,357 and 1,503; Fold PPARα activation (human PPARα; conc. 0,00000300 M): 2,302 and 2,145 and 2,016; Fold PPARα activation (human PPARα; conc. 0,00000600 M): 4,397 and 3,518 and 3,421; Fold PPARα activation (human PPARα; conc. 0,00001000 M): 4,249 and 4,283 and 3,276; Fold PPARα activation (human PPARα; conc. 1,00000000e-007 M): 0,978 and 1,133 and 1,009; Fold PPARα activation (human PPARα; conc. 1,00000000e-008 M): 1,321 and 1,277 and 1,261; Fold PPARα activation (human PPARα; conc. 3,00000000e-007 M): 1,112 and 1,105 and 1,170; EC50 (human PPARα; hybrid reporter gene assay, HEK293T cells): 3.4 ± 0.3 µM; activity on PPARδ (human PPARδ): no discernible activity

From publication PMC11035696, “Prospective de novo drug design with deep interactome learning” (Nature Communications, 2024)
